Series [1] concerns the target T1, Hematopoietic prostaglandin D synthase (Homo sapiens, UniProt O60760). Description: Inhibition of HPGDS (unknown origin) assessed as reduction in reduction in LPS-induced PGD2 level by ELISA. A general note: In an ELISA, binding on a coated surface is turned into a signal by an enzyme label.
In series [2] the target is T1, Hematopoietic prostaglandin D synthase. Description: Inhibition of HPGDS (unknown origin) by fluorescence polarization assay. (In general: In fluorescence polarisation assays a small probe gives low polarisation when free and higher when bound to something large.)
The target is the same in series [3]. Description: Binding affinity to HPGDS (unknown origin) assessed as change in melting temperature by thermal shift assay.
Series [4] shares this target. Description: Inhibition of HPGDS (unknown origin) assessed as reduction in reduction in GSTase activity relative to control. Details: concentration or dose not given beside the values. The following applies: concentration not given here.
Series [5] has the same target. Description: Binding affinity to HPGDS (unknown origin) assessed as change in melting temperature in presence of GSH by thermal shift assay.
Series [6] has the same target. Description: Competitive inhibition of human HPGDS using PGH2 as substrate.
The nature of series [7]: Aqueous solubility of compound at pH 7.4. The format is physicochemical.
Series [8] is described as follows: Half life in human liver microsomes. It is filed as ADME, Microsome. On the technique in general: Microsomes from liver hold many membrane-bound enzymes, among them those of drug oxidation.

Converted amounts (≈) assume the structure as drawn. A value given as a limit tells only on which side of the number the result lay.

T1 sequence (O60760 whole entry): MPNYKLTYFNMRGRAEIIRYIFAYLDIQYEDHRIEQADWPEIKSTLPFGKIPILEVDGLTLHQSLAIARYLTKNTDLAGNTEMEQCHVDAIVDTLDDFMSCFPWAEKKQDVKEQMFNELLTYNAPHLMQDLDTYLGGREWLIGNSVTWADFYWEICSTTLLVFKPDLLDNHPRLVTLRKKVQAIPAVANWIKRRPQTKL

On to `CC(C)(O)c1nc(-c2cccc(CNC(=O)c3ccc(-c4ccccc4)nc3)c2)no1`, for which the IC50 (usually the point on the concentration scale where inhibition reaches its midpoint) in series [1] was 808 nM; in series [2] it was 27.7 nM. For the same compound, the results for the thermal shift (ΔTm) in series [3] and in series [5] were 0.2 °C and 3.3 °C, respectively. Moreover, the inhibition (in general, how much of the control response was suppressed) in series [4] was determined as 62.4%.
As to `c1ccc(C(OC2CCN(CCCc3nnn[nH]3)CC2)c2ccccc2)cc1`, affinity in series [6] was put at a Ki of 5000 nM.
For `CC(C)(O)c1nc(-c2cccc(CNC(=O)c3cnc(-c4ccccn4)nc3)c2)no1`, the values for the concentration for half-maximal inhibition (IC50) in series [1] and in series [2] were 11.6 nM and 7.48 nM, respectively. In addition, the ΔTm – broadly, the change in melting temperature against a reference sample – in series [3] amounted to 0.5 °C; in series [5], 5.1 °C. Also, the inhibition in series [4] amounted to 90.9%.
The corresponding values for `c1ccc(-c2ncc(-c3cnc(-c4ccccc4)[nH]3)cn2)cc1` are 59 nM, 8.88 nM, 3.6 °C, 3.8 °C and 94.5%.
Consider `CC(C)(O)c1nc(-c2cccc(CNC(=O)c3ccc(-c4ccccn4)nc3)c2)no1`, for which the IC50 was determined as 328 nM in series [1] and 55.5 nM in series [2]. Moreover, the figures for the thermal shift (ΔTm) in series [3] and in series [5] were 0.1 °C and 2.8 °C, respectively. The inhibition in series [4] was 47.2%.
Turning to `CC(C)(O)c1nc(-c2cccc(-c3ncc(-c4ccc(-c5ccccc5)nc4)[nH]3)c2)no1`, the values for the IC50 in series [1] and in series [2] were 72 nM and 35.4 nM, respectively. The ΔTm in series [3] was determined as 4.3 °C; in series [5], 5.2 °C. For the same compound, in series [4], the inhibition came out at 83.5%.
Take `O=C(NCc1ccccc1)c1cnc(-c2ccccn2)nc1`: the IC50 in series [1] worked out at 35.7 nM; in series [2], 7.14 nM. Moreover, the figures for the shift in melting temperature (ΔTm) in series [3] and in series [5] were 0.2 °C and 4.2 °C, respectively. The inhibition in series [4] is 71.3%.
The like results for `Cn1c(-c2cnc(-c3ccccc3)nc2)cnc1-c1ccccc1` were, in that order, 723 nM, 63.1 nM, 3.1 °C, 3.4 °C and 38.4%.
The like results for `O=C(NCc1ccccc1)c1cnc(-c2ccccc2)nc1` were, in that order, 23.9 nM, 11.7 nM, 0.4 °C, 4.6 °C and 82.5%.
The corresponding values for `O=C(NCc1ccccc1)c1ccc(-c2ccccn2)nc1` are 453 nM, 80.7 nM, 0.1 °C, 2.8 °C and 19.2%.
For the compound `c1ccc(-c2ncc(-c3ccc(-c4ccccn4)nc3)[nH]2)cc1`, the IC50 in series [1] was 44.5 nM; in series [2], 37.2 nM. Further, the shift in melting temperature (ΔTm) in series [3] was found to be 4.2 °C; in series [5] it was 5.2 °C. Also, in series [4], the inhibition is 73.5%.
As to `c1ccc(-c2ncc(-c3cnc(-c4ccccn4)nc3)[nH]2)cc1`, the IC50 is 5060 nM in series [1] and 1770 nM in series [2]. Further, the ΔTm in series [3] amounted to 0.2 °C; in series [5] it was 0.6 °C. Further, in series [4], the inhibition turned out to be 18.2%.
The corresponding values for `CC(C)(O)c1nc(-c2cccc(CNC(=O)c3cnc(-c4ccccc4)nc3)c2)no1` are 9.86 nM, 7.18 nM, 0.4 °C, 4.95 °C and 83.9%.
The corresponding values for `c1ccc(-c2ncc(-c3cnc(-c4cccnc4)s3)cn2)cc1` are more than 5000 nM, 257 nM, 2.1 °C, 2.2 °C and 29.5%.
`CC(C)(O)c1nc(-c2cccc(-c3ncc(-c4cnc(-c5ccccn5)nc4)[nH]3)c2)no1` registered an IC50 in series [2] of 3200 nM. The ΔTm in series [3] was found to be 0.4 °C; in series [5], 0.6 °C. Further, the inhibition in series [4] was 25.5%. In series [7], the concentration in solution (solubility) was 17.5 µM (≈ 7.45 µg/mL).
On to `c1ccc(-c2ccc(-c3cnc(-c4ccccc4)[nH]3)cn2)cc1`, for which the IC50 in series [1] was 40.5 nM; in series [2], 31.6 nM. The shift in melting temperature (ΔTm) came to 3.2 °C in series [3] and 4.4 °C in series [5]. Moreover, in series [4], the inhibition is 85.2%.
The like results for `O=C(NCc1ccccc1)c1ccc(-c2ccccc2)nc1` were, in that order, 1230 nM, 122 nM, 0.3 °C, 3 °C and 40.4%.
For the compound `Cc1nc(-c2ccccc2)[nH]c1-c1cnc(-c2ccccc2)nc1`, the figures for the concentration for half-maximal inhibition (IC50) in series [1] and in series [2] were 3740 nM and 30.8 nM, respectively. The shift in melting temperature (ΔTm) in series [3] turned out to be 4.3 °C; in series [5], 4.5 °C. Besides, in series [4], the inhibition worked out at 81.5%.
The like results for `c1ccc(-c2ncc(-c3cnc(-c4cccnc4)[nH]3)cn2)cc1` were, in that order, 12.5 nM, 13.2 nM, 4.9 °C, 5.7 °C and 65.1%.
As to `CC(C)(O)c1nc(-c2cccc(-c3ncc(-c4cnc(-c5ccccc5)nc4)[nH]3)c2)no1`, the values for the half-inhibitory concentration (IC50) in series [1] and in series [2] were 20.7 nM and 5.88 nM, respectively. For the same compound, the shift in melting temperature (ΔTm) was 6.9 °C in series [3] and 7.1 °C in series [5]. Moreover, the inhibition in series [4] turned out to be 92.1%. Moreover, the concentration in solution in series [7] (solubility) was 3.3 µM (≈ 1.4 µg/mL). Besides, the half-life (in general, how long it takes for the measured level to halve) in series [8] was more than 1 h.
For `CC(C)(O)c1nc(-c2cccc(-c3ncc(-c4ccc(-c5ccccn5)nc4)[nH]3)c2)no1`, the IC50 in series [1] was 23.4 nM; in series [2], 78.6 nM. The shift in melting temperature (ΔTm) came to 4.8 °C in series [3] and 5.4 °C in series [5]. The inhibition in series [4] worked out at 76.1%.

(Values after ChEMBL document CHEMBL4715889, “Novel amide and imidazole compounds as potent hematopoietic prostaglandin D synthase inhibitors” (Bioorg Med Chem Lett, 2021).)
